Laboratory results from the NIST ThermoML archive (doi:10.1021/je100776x).

Experiments:
[1] = refractive index (Na D-line) (dimensionless); conditions: 298.15 K; 101.33 kPa; Liquid; Standard Abbe refractometry
[2] = Liquid; for mass density: 298.15 K, 101.33 kPa, Vibrating tube method; for Normal boiling temperature: Ebulliometric method (Recirculating still)

CC(=O)CC(C)C [4-methylpentan-2-one]
Conditions	mass density [kg/m3]	refractive index
[1]	–	1.3942
[2]	796.03	–

[2]
Conditions	vapor or sublimation pressure [kPa]
343.76 K	22.45
346.51 K	24.97
349.09 K	27.43
351.46 K	29.98
353.65 K	32.46
355.76 K	35.07
357.68 K	37.44
359.54 K	39.99
361.33 K	42.54
362.97 K	44.96
364.61 K	47.52
366.15 K	50.02
367.55 K	52.44
369.05 K	55.08
370.35 K	57.48
371.66 K	59.96
372.96 K	62.51
374.22 K	65.08
375.35 K	67.44
376.56 K	70.07
377.63 K	72.41
378.73 K	74.98
379.78 K	77.41
380.83 K	79.93
381.84 K	82.44
382.84 K	84.96
383.8 K	87.44
384.71 K	89.85
385.67 K	92.47
386.6 K	95.07
387.45 K	97.46
387.82 K	98.52
388.33 K	99.98
388.78 K	101.33

C1CCCCC1 [cyclohexane]
Conditions	Normal boiling temperature [°C]	mass density [kg/m3]	refractive index
[1]	–	–	1.4238
[2]	80.58	773.82	–

C1=CCCCC1 [cyclohexene]
Conditions	Normal boiling temperature [°C]	mass density [kg/m3]	refractive index
[1]	–	–	1.4444
[2]	82.82	805.69	–
